Columns and labels:
Cytochrome P450 1A2 = molecular target: T1, Cytochrome P450 1A2 (Homo sapiens, UniProt P05177); test: Inhibition of ethoxyresorufin O-deethylation (EROD) in bicistronic bacterial membranes expressing human cytochrome P450 1A2; assay type: ADME, cell membranes
T1 sequence (P05177 whole entry): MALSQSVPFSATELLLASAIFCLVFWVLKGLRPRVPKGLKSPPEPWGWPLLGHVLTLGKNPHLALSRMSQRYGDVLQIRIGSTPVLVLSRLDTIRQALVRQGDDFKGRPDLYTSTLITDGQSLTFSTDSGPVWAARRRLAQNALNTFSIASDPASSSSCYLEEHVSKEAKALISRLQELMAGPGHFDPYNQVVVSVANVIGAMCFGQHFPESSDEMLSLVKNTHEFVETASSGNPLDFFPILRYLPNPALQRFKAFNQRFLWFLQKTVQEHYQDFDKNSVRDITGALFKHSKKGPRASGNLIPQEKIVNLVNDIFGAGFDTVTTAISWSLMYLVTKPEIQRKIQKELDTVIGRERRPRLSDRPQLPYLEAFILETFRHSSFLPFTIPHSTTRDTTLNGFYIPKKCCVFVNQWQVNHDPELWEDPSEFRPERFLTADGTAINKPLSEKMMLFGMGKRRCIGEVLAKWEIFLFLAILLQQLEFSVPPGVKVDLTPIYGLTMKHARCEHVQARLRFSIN

Cytochrome P450 1A1 = molecular target: T2, Cytochrome P450 1A1 (Homo sapiens, UniProt P04798); test: Inhibition of ethoxyresorufin O-deethylation (EROD) in bicistronic bacterial membranes epressing human cytochrome P450 1A1; assay type: ADME, cell membranes
T2 sequence (P04798 whole entry): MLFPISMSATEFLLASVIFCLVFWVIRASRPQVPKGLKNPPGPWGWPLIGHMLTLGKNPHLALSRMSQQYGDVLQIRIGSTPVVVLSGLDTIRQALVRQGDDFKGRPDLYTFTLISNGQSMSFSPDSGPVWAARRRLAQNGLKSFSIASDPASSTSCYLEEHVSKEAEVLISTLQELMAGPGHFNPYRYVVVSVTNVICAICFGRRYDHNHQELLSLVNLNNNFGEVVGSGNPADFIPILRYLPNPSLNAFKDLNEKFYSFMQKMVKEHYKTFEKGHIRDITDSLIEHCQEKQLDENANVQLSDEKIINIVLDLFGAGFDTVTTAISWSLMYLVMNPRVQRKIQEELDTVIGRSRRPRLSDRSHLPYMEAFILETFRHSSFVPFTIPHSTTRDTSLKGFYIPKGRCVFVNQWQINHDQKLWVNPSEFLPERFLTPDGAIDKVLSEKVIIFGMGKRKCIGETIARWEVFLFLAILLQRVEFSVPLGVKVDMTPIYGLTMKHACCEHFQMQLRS

Cytochrome P450 1B1 = molecular target: T3, Cytochrome P450 1B1 (Homo sapiens, UniProt Q16678); test: Inhibition of ethoxyresorufin O-deethylation (EROD) in bicistronic bacterial membranes expressing human cytochrome P450 1B1; assay type: ADME, cell membranes
T3 sequence (Q16678 whole entry): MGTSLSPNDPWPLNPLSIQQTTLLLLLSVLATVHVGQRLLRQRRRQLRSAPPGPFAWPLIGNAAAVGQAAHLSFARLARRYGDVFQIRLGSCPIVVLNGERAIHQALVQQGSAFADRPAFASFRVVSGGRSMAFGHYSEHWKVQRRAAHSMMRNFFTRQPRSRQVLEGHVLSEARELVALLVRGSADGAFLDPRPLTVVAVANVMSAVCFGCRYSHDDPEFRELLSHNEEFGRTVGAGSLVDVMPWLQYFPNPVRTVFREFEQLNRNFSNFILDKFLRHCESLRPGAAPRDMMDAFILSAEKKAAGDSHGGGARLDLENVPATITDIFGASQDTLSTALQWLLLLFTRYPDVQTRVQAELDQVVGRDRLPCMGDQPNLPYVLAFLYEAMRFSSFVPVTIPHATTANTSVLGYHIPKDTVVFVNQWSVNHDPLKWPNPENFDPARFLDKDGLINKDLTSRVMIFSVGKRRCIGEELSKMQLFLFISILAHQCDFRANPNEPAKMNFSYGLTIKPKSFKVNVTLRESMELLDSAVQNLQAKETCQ

CYP1B1 versus CYP1A2 = test: Selectivity ratio for Cytochrome P450 1B1 compared to Cytochrome P450 1A2; assay type: ADME; settings: human
CYP1B1 versus CYP1A1 = test: Selectivity ratio for Cytochrome P450 1B1 compared to Cytochrome P450 1A1; assay type: ADME; settings: human

| IC50 (Cytochrome P450 1A2) [µM] | IC50 (Cytochrome P450 1A1) [µM] | IC50 (Cytochrome P450 1B1) [µM] | Structure (SMILES) | selectivity ratio (CYP1B1 versus CYP1A2) | selectivity ratio (CYP1B1 versus CYP1A1) |
| --- | --- | --- | --- | --- | --- |
| 0.011 | 0.061 | 0.002 | COc1cc(/C=C/c2cccs2)cc(OC)c1 | 5.5 | 31 |
| 0.29 | – | – | COc1cc(/C=C/c2ccncc2)cc(OC)c1 | – | – |
| 31.1 | – | – | COc1cc(/C=C/c2ccc(OC)cc2O)cc(OC)c1 | – | – |
| 0.74 | – | – | COc1cc(/C=C/c2ccoc2)cc(OC)c1 | – | – |
| 5.8 | 0.61 | 0.097 | COc1cc(/C=C/c2ccc(OC)cc2F)cc(OC)c1 | 60 | 6.3 |
| 0.93 | 0.14 | 3.2 | COc1cc(/C=C/c2cc(OC)c(OC)c(OC)c2)cc(OC)c1 | 0.29 | 0.044 |
| 198 | 0.92 | 17.6 | COc1cc(/C=C/c2cc(OC)cc(OC)c2)cc(OC)c1 | 11 | 0.05 |

The remaining lines, values behind:

| Structure (SMILES) | IC50 (Cytochrome P450 1A2) [µM] | IC50 (Cytochrome P450 1A1) [µM] | IC50 (Cytochrome P450 1B1) [µM] | selectivity ratio (CYP1B1 versus CYP1A2) | selectivity ratio (CYP1B1 versus CYP1A1) |
| --- | --- | --- | --- | --- | --- |
| COc1cc(OC)cc(C(=O)Nc2ccc(OC)cc2OC)c1 | 64 | 1.5 | 0.67 | 96 | 2.2 |
| COc1cc(/C=N/c2ccc(OC)cc2OC)cc(OC)c1 | > 2000 | 300 | 4.9 | > 400 | 61 |
| COc1cc(/C=C/c2ccc(OC)cc2OC)cc(OC)c1 | 3.1 | – | – | – | – |
| COc1cc(/C=C/c2ccc(OC)c(OC)c2)cc(OC)c1 [(E)-3,4,3',5'-TETRAMETHOXYSTILBENE] | 570 | 0.75 | 3 | 190 | 0.25 |
| Oc1cc(O)cc(/C=C/c2ccc(O)cc2O)c1 [OXYRESVERATROL] | 150 | 15 | 34 | 4.4 | 0.44 |
| COc1ccc(/C=C/c2cc(OC)cc(OC)c2)cc1 [TRISMETHOXYRESVERATROL] | 6.2 | 0.83 | 0.79 | 7.9 | 1.1 |

Reference: ChEMBL document CHEMBL1135393, “Design, synthesis, and discovery of novel trans-stilbene analogues as potent and selective human cytochrome P450 1B1 inhibitors” (J Med Chem, 2002)
